# Entries after “also recorded” stand apart in the source; their conditions may differ.
# What was measured:
# [1] = system: human foreskin fibroblasts (FF1); test: Cell attachment assay in monolayers (peptide-coated Sepharose beads); format: cell-based
# Description: (§1) A peptide solution in coupling buffer prepared as above was immediately added to the activated Sepharose beads Sepharose beads were used to fixate the peptides for all in-vitro assays in the column to a final binding of 6 mg peptide per ml gel. The column was closed and shaken overnight at 4° C. very gently to avoid mechanical breakage of the beads. The bottom cap of the column was removed and the solution of ligand/buffer was collected as the Sepharose Beads settled on the filter. The OD280 of the collected buffer was checked to determine the concentration of uncoupled peptide. The gel was washed/aspirated with 5 volumes (˜2 ml) of coupling buffer and gently mixed. Any remaining active groups on the gel were blocked with blocking buffer for 2 hours at room temperature or overnight at 4° C. The Sepharose beads gel with peptides was then washed by 2 cycles each of 5 gel volumes of: • a. 0.1 M Acetate buffer • b. Coupling buffer • c. Storing buffer: azide-coupling buffer: coupling buffer containing 0.1% NaN3 (final concentration)
# (§2) The tested peptides (Table 1) were coupled to Sepharose Beads at two concentrations: 6 and 12 mg/ml Sepharose Beads. Sepharose Beads that underwent the coupling procedure without peptide addition (“naked Sepharose Beads”) served as a negative control (referred to herein as “Sepharose Beads-blank”). A cell binding assay was performed with 2 normal cell types: bovine aortal endothelial cells (BAEC) and human foreskin fibroblasts (FF1). Sepharose beads were added to 12 well culture plates with sub-confluent monolayer of the cultured cells (100-300 beads were added to each well). The fraction of Sepharose beads attached to the monolayer was determined at different times.
# [2] = system: bovine aortal endothelial cells (BAEC); test: as above; format: cell-based; conditions: for cell binding activity (BAEC), in words: 6 mg/ml
# Description: as §1, §2
# [3] = FIG. 3a, concentration not given
sequence,measurement,setting,value
KGYKYSYKVSEMKVRPAK [C-Fic-a-K],cell binding of FF1 reached,"[1]; 6 mg peptide/ml, FIG. 1",100%
"KTRWYSMKKTTMKIIPFNR [PreC, positive control peptide, reference compound]",cell binding of FF1 reached,"[1]; 6 mg peptide/ml, FIG. 1",100%
GGWTVFQRRVDGSVDFYRK [M-Fic],binding rate of BAEC at the lower concentration,"[2]; 6 mg/ml compared with 12 mg/ml, FIG. 9",slight decrease
same,Nomarsky optic microscopy of peptide coated beads attached to endothelial cells (BAEC),"[2]; 3 weeks of incubation, x100, FIG. 12",formation of small tubes
same,activity in forming bead-cell aggregates and tube like structures,"[2]; longer incubation times, FIGS. 10-12",highest activity
same,"cell binding activity (FF1), in words",[1]; 6 mg peptide/ml,initially inferior to the positive control; also recorded: retains its activity
same,"cell binding activity (FF1), in words","[1]; 6 mg peptide/ml, listed as M-fic",retain most of its activity
same,time to reach saturated cell binding,"[1]; 6 mg/ml, FF1",≤ 24 h
same,Nomarsky optic microscopy of peptide coated beads attached to FF1,"[1]; after 3 days of incubation, x100, FIG. 10",aggregates of cells and beads formed
same,time to saturated attachment,"[1]; conclusions, cell type and concentration not stated",72 h
GGWTVFQRRMDGSVDFYRK [M-Fic-K],"cell binding activity (FF1), in words",[1]; 6 mg peptide/ml,dramatic change in activity
"KGYKYSYKGGWTVFQRRMDGSVDFYRK [C-M-Fic2-K, C-M-Fic2 with the addition of a lysine group]",cell binding of FF1 reached,[1]; [3],100%
same,kinetic profile of cell binding of FF1,[1]; [3],good kinetic profile of cell binding (fast attachment)
KGYKYSYKGGWTVFQRRMDGSVDFYR [C-M-Fic2],cell binding of FF1 reached,[1]; [3],100%
same,kinetic profile of cell binding of FF1,[1]; [3],good kinetic profile of cell binding (fast attachment)
"KGYNYSYKSEMKVRPAK [C-Fic, b25 prints …]",extent of cell binding,"[2]; 6 mg peptide/ml, after 96 hours of incubation, cell type not stated (FF1 or BAEC)",about 30%
same,"cell binding activity (BAEC), in words",[2],completely looses reactivity
same,"cell binding activity (BAEC), in words",[2]; listed as C-fic,did not attach; also recorded: some activity
same,"cell binding activity (FF1), in words",[1]; 6 mg peptide/ml,no reactivity
same,"cell binding activity (FF1), in words","[1]; 6 mg peptide/ml, listed as C-fic",did not attach; also recorded: looses its activity; also recorded: inactive
same,cell binding of FF1 reached,"[1]; 12 mg peptide/ml, after 150 hours (FIG. 4b)",100%
KGYKYSYKVSEMKFQRRMDGSVDFYRK [C-M-Fic-a-K],rate/kinetics of cell binding of FF1 compared with positive control PreC,"[1]; 6 mg peptide/ml, FIG. 1, FIG. 2",accelerated the kinetics of cell binding
